Tests used:
[1] = system: Trypanosoma cruzi; assay: GSK_TCAKS: pIC50 Trypanosoma cruzi viability assay using beta-GAL activity. This assay was run at single shot at 5uM compound concentration per well. The biological reagents consisted of NIH-3T3 host cells and trypomastigotes parasitic cells; both cell types were set to a 3.3 * 10^5 cells/mL dilution in assay DMEM by means of a CASY cell counter device using a 60um capillary. 6 uL of the mixture were dispensed per well (about 1 * 10^3 host-cells and 1 * 10^3 parasites) with a Multidrop Combi dispenser. […] In all wells, the percentage of DMSO never exceeded 0.5%. Plates incubated for four days at 37C, 5% CO2. The substrate used for the assay fluorescence intensity (FLINT) readout was resorufin-beta-D-galactopiranoside (Sigma-Aldrich) at 5uM per well. It was diluted in PBS supplemented with the soft detergent Igepal (Fluka).; type: functional, organism-based, Mus musculus; conditions: Tulahuen, NIH3T3
[2] = system: Trypanosoma cruzi; assay: (§1) GSK_TCAKS: pIC50 Trypanosoma cruzi Imaging: Infected Cells. […] Cells were then washed once with PBS before infection. T. cruzi trypomastigotes, collected at days 5 to 8 after infection from LLC-MK2 parasite infected cultures, were allowed to swim out for 4h at 37C from a centrifuged pellet (2,500 rpm/10 min/room temperature). Trypomastigotes were then collected and counted in a CASY Cell Counter. Trypomastigotes, in supplemented DMEM, were added to H9c2 cultures in a multiplicity of infection of 1 and incubated for 18 h. Cells were washed once with PBS before incubation of the infected H9c2 monolayer with trypsin (Life-Technologies) to detach cells from the flask. Cells were counted in a CASY Cell Counter using a 150 um capillary and their density set at 5 * 10^4 cells per mL in supplemented assay DMEM. Infected H9c2 were dispensed into 384-well poly-lysine coated assay plates at 50uL per well using a Multidrop Combi dispenser. After seeding them, the plates were incubated at 37C, 5% CO2 for 72h. Cultures were then fixed and stained by addition of 50 uL of a solution containing 8% formaldehyde and 4 uM DRAQ5 DNA dye (BioStatus, UK) per well. […] Five images were collected per well for reliable statistical analysis. Automated image analysis was performed with a script developed on Acapella High Content Imaging and Analysis Software (PerkinElmer). Output: percentage of infected cells per well as a second infection marker.; type: functional, organism-based, Rattus norvegicus; conditions: H9c2, 4 h
[3] = system: Trypanosoma cruzi; assay: GSK_TCAKS: pIC50 Trypanosoma cruzi Imaging: Amastigotes/Cell. […] Cells were then washed once with PBS before infection. T. cruzi trypomastigotes, collected at days 5 to 8 after infection from LLC-MK2 parasite infected cultures, were allowed to swim out for 4h at 37C from a centrifuged pellet (2,500 rpm/10 min/room temperature). Trypomastigotes were then collected and counted in a CASY Cell Counter. Trypomastigotes, in supplemented DMEM, were added to H9c2 cultures in a multiplicity of infection of 1 and incubated for 18 h. Cells were washed once with PBS before incubation of the infected H9c2 monolayer with trypsin (Life-Technologies) to detach cells from the flask. Cells were counted in a CASY Cell Counter using a 150 um capillary and their density set at 5 * 10^4 cells per mL in supplemented assay DMEM. Infected H9c2 were dispensed into 384-well poly-lysine coated assay plates at 50uL per well using a Multidrop Combi dispenser. After seeding them, the plates were incubated at 37C, 5% CO2 for 72h. Cultures were then fixed and stained by addition of 50 uL of a solution containing 8% formaldehyde and 4 uM DRAQ5 DNA dye (BioStatus, UK) per well. […] Five images were collected per well for reliable statistical analysis. Automated image analysis was performed with a script developed on Acapella High Content Imaging and Analysis Software (PerkinElmer). Output: number of amastigotes per cell as infection level measurement.; type: functional, organism-based, Rattus norvegicus; conditions: H9c2, 4 h
[4] = system: Trypanosoma cruzi; assay: as §1, with “H2C9” for “Trypanosoma cruzi”, “H9c2 Host Cardiomyocytes.” for “Infected Cells.”, “Number” for “percentage”, “H9c2 Host Cardiomyocytes nuclei to determine drug-related cytotoxicity.” for “infected cells per well as a second infection marker.”; type: functional, organism-based, Rattus norvegicus; conditions: H9c2, 4 h
[5] = system: Leishmania donovani; assay: GSK_TCAKS: pIC50 Leishmania donovani viability assay using fluorescence intensity. Assay plates (1536-well) were prepared by adding 30nL per well of compound. For single shot assay, the final compound concentration was 5uM. […] Briefly, eGFP LdBOB axenic amastigotes were harvested, fixed and counted in a CASY cell counter (Roche-Applied Science). A final concentration of 1.5 * 10^5 cells per well were prepared in amastigote media containing 500 U/mL penicillin/streptomycin (Invitrogen) and 6uL was dispensed to each experimental well using a Multidrop Combi dispenser (Thermo Scientific). 6uL of assay media was dispensed to control columns used as reference for 100% compound response. Following incubation for 72 h at 37C, 5% CO2, 2 uL of resazurin was added to each well at a final concentration of 0.5 mM in phosphate buffered saline (PBS) with IGEPAL (Sigma-Aldrich), 0.05% (v/v).; type: functional, organism-based
[6] = system: Leishmania donovani; assay: (§2) GSK_TCAKS: pIC50 Leishmania donovani Imaging: Infected Macrophages. Assay plates (384-well) were prepared by adding 250nL of compound to each well. For single shot assay, the final compound concentration was 5 uM. […] Automated image analysis was performed with a script developed on Acapella High Content Imaging and Analysis Software (PerkinElmer). Output: Percent of infected macrophage cells were reported for each well.; type: functional, organism-based, Homo sapiens; conditions: THP-1
[7] = system: Leishmania donovani; assay: as §2, with “Amastigotes/Macrophages.” for “Infected Macrophages.”, “Average number” for “Percent”, “amastigotes per” for “infected”, “cell” for “cells”; type: functional, organism-based, Homo sapiens; conditions: THP-1
[8] = system: Leishmania donovani; assay: as §2, with “THP-1 Host” for “Infected”, “THP-1 cell count” for “Percent of infected macrophage cells”; type: functional, organism-based, Homo sapiens
[9] = system: Trypanosoma brucei brucei; assay: GSK_TCAKS: pIC50 Trypanosoma brucei viability assay using fluorescence intensity. Assay plates (1536-well) were prepared by dispensing 25nL of compound solution per well using an Echo acoustic dispenser (Labcyte).; type: functional, organism-based; conditions: Lister 427, 2 h
[10] = system: Trypanosoma brucei brucei; assay: GSK_TCAKS: pIC50 Trypanosoma brucei viability assay using luminiscence. Assay plates (1536-well) were prepared. T. brucei cultures were harvested and counted in a CASY cell counter. A parasite suspension was prepared at a final concentration of 5 * 10^4 cells/mL in complete HMI9 medium and 6uL was dispensed to all wells containing compounds using a Multidrop Combi dispenser. 6uL of HMI9 media with 0.4% DMSO were dispensed to control columns. Plates were incubated for 24 h at 37C, 5% CO2 then tempered for 10 min at room temperature. ATP content was quantified by adding 4 uL of CellTiter-Glo Reagent (Promega) according to the manufacturer's instructions. Luminescence was measured using a ViewLux.; type: functional, organism-based; conditions: Lister 427, CASY
[11] = GSK_TCAKS: pIC50 HepG2 human cell line viability assay using luminiscence. […] Seeding density was checked to ensure that new mono-layers were not more than 50% confluent at the time of harvesting. Cell suspension was added to 500 mL of the same medium at a final density of 1.2 * 10^5 cells/mL. This cell suspension was dispensed (25 uL, 3000 cells per well) into 384-well clear-bottom plates using a Multidrop Combi dispenser. Prior to addition of the cell suspension, the screening compounds (250 nL) were pre-dispensed into the plates with an Echo liquid handler. Plates were incubated for 48 h at 37C, 5% CO2. After incubation, plates equilibrated at room temperature for 30 min before proceeding to develop the luminescent signal. The signal developer, CellTiter-Glo Reagent, was allowed to equilibrate at room temperature for 30 min and added to the plates (25uL per well) using a Multidrop Combi dispenser. Plates were left for 10 min at room temperature for stabilization and then read using a ViewLux.; type: toxicity, cell-based
[12] = molecular target: Sterol 14-alpha demethylase (Trypanosoma cruzi (strain CL Brener), UniProt Q7Z1V1); assay: GSK_TCAKS: pIC50 CYP51 from Trypanosoma cruzi.; type: functional
Sequence of Sterol 14-alpha demethylase (Q7Z1V1 whole entry): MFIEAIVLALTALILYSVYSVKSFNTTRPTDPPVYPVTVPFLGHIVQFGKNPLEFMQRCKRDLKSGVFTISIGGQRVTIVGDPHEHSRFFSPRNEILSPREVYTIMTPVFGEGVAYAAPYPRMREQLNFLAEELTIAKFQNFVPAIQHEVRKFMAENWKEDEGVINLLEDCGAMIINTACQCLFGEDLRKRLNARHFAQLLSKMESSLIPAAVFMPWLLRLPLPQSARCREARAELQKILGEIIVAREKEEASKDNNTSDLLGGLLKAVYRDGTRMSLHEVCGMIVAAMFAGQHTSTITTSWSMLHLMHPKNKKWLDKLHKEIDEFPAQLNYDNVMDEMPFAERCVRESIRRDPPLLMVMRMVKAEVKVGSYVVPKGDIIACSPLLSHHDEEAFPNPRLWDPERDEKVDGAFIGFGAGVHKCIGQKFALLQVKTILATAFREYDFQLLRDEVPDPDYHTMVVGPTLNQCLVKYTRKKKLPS

## Cc1cc(Oc2cc(Cl)c(Cl)cc2Cl)n2ncnc2n1
[1]
  IC50: 5.01 µM
[2]
  IC50: 25.1 µM
[3]
  IC50: 10 µM
[4]
  IC50: 7.94 µM
[5]
  IC50: 15.8 µM
[6]
  IC50: 15.8 µM
[7]
  IC50: 12.6 µM
[8]
  IC50: 10 µM
[9]
  IC50: 0.794 µM
[10]
  IC50: 0.398 µM
[11]
  IC50 at 48 h: 31.6 µM
[12]
  IC50: > 100 µM

## COc1cnc2ccc(=O)n(CCN3CCC(NC(=O)c4ccc(Cl)cc4)CC3)c2c1
[1]
  IC50: 0.126 µM
[2]
  IC50: 0.251 µM
[3]
  IC50: 0.0794 µM
[4]
  IC50: 0.631 µM
[5]
  IC50: 2 µM
[6]
  IC50: > 50.1 µM
[7]
  IC50: 3.98 µM
[8]
  IC50: > 50.1 µM
[9]
  IC50: 0.0794 µM
[10]
  IC50: 0.1 µM
[11]
  IC50 at 48 h: > 100 µM
[12]
  IC50: 10 µM

## CCn1c(-c2nonc2N)nc2c([C@@H](C)O)ncc(O[C@H](CN)c3ccccc3)c21
[1]
  IC50: 7.94 µM
[2]
  IC50: 10 µM
[3]
  IC50: 7.94 µM
[4]
  IC50: 0.631 µM
[5]
  IC50: 20 µM
[6]
  IC50: 5.01 µM
[7]
  IC50: 3.16 µM
[8]
  IC50: 3.16 µM
[9]
  IC50: 0.631 µM
[10]
  IC50: 0.794 µM
[11]
  IC50 at 48 h: 79.4 µM
[12]
  IC50: 25.1 µM

## Cc1nn(-c2nc3ccccc3s2)c2c1C(c1ccc(OCC(N)=O)cc1)SCC(=O)N2 (stereo not given)
[1]
  IC50: 5.01 µM
[2]
  IC50: > 50.1 µM
[3]
  IC50: > 50.1 µM
[4]
  IC50: > 50.1 µM
[5]
  IC50: > 50.1 µM
[6]
  IC50: > 50.1 µM
[7]
  IC50: > 50.1 µM
[8]
  IC50: > 50.1 µM
[9]
  IC50: 0.02 µM
[10]
  IC50: 0.0316 µM
[11]
  IC50 at 48 h: > 100 µM
[12]
  IC50: > 100 µM

## COc1cc(C2SCC(=O)Nc3c2c(C)nn3-c2nc3ccccc3s2)cc(OC)c1O (stereo not given)
[1]
  IC50: > 50.1 µM
[2]
  IC50: > 50.1 µM
[3]
  IC50: > 50.1 µM
[4]
  IC50: > 50.1 µM
[5]
  IC50: 6.31 µM
[6]
  IC50: 0.316 µM
[7]
  IC50: 0.251 µM
[8]
  IC50: > 50.1 µM
[9]
  IC50: 6.31 µM
[10]
  IC50: > 39.8 µM
[11]
  IC50 at 48 h: > 100 µM
[12]
  IC50: 5.01 µM

## Cc1ccccc1NS(=O)(=O)c1ccc2[nH]cc(C(=O)NC3CCCC(C)C3C)c(=O)c2c1 (stereo not given)
[1]
  IC50: 5.01 µM
[2]
  IC50: 6.31 µM
[3]
  IC50: 3.16 µM
[4]
  IC50: 6.31 µM
[5]
  IC50: 25.1 µM
[6]
  IC50: 15.8 µM
[7]
  IC50: 15.8 µM
[8]
  IC50: 12.6 µM
[9]
  IC50: 0.316 µM
[10]
  IC50: 0.631 µM
[11]
  IC50 at 48 h: 39.8 µM
[12]
  IC50: 5.01 µM

## COCCn1cnc2cc(NC(=O)C3CCCCC3)cc(C(=O)N3CCc4sccc4C3)c21
[1]
  IC50: 20 µM
[2]
  IC50: 31.6 µM
[3]
  IC50: 20 µM
[4]
  IC50: > 50.1 µM
[5]
  IC50: > 50.1 µM
[6]
  IC50: > 50.1 µM
[7]
  IC50: > 50.1 µM
[8]
  IC50: > 50.1 µM
[9]
  IC50: 0.794 µM
[10]
  IC50: 1 µM
[11]
  IC50 at 48 h: > 100 µM
[12]
  IC50: 50.1 µM

## CCC(=O)Nc1ccccc1C(=O)Nc1ccccn1
[1]
  IC50: > 50.1 µM
[2]
  IC50: > 50.1 µM
[3]
  IC50: > 50.1 µM
[4]
  IC50: > 50.1 µM
[5]
  IC50: > 50.1 µM
[6]
  IC50: > 50.1 µM
[7]
  IC50: > 50.1 µM
[8]
  IC50: > 50.1 µM
[9]
  IC50: 0.316 µM
[10]
  IC50: 0.398 µM
[11]
  IC50 at 48 h: > 100 µM
[12]
  IC50: > 100 µM

## COc1ncc(-c2ccc3nccc(-c4ccncc4)c3c2)cc1NS(=O)(=O)C1CC1
[1]
  IC50: 0.316 µM
[2]
  IC50: 2.51 µM
[3]
  IC50: 2 µM
[4]
  IC50: 0.794 µM
[5]
  IC50: 1.26 µM
[6]
  IC50: 1.26 µM
[7]
  IC50: 0.316 µM
[8]
  IC50: 1 µM
[9]
  IC50: 0.2 µM
[10]
  IC50: 0.398 µM
[11]
  IC50 at 48 h: > 100 µM
[12]
  IC50: 7.94 µM

## Cc1nc(N2CC(C)OC(C)C2)sc1C(=O)Nc1ccc2c(c1)OCO2 (stereo not given)
[1]
  IC50: 2 µM
[2]
  IC50: 3.98 µM
[3]
  IC50: 2.51 µM
[4]
  IC50: > 50.1 µM
[5]
  IC50: 6.31 µM
[6]
  IC50: 7.94 µM
[7]
  IC50: 3.16 µM
[8]
  IC50: > 50.1 µM
[9]
  IC50: 39.8 µM
[10]
  IC50: > 39.8 µM
[11]
  IC50 at 48 h: > 100 µM
[12]
  IC50: 39.8 µM

Reference: ChEMBL document CHEMBL3430912, “GSK Tres Cantos Anti-Kinetoplastid Screening (TCAKS) Data”
